The results in this text go back to the Kinase Knowledgebase extract (Sharma et al. 2016).

Several values for one entry are separate records, joined by “and”; a condition that tells them apart may be missing. Equal entries are not always repeated. Where only a bound is given, the exact number is not on record here.

The target of the first assay is MAPK14 (UniProt Q16539). As to the kind of experiment: Inhibition of MAPK14 Kinase Activity.
Sequence of MAPK14 (Q16539 whole entry, looked up): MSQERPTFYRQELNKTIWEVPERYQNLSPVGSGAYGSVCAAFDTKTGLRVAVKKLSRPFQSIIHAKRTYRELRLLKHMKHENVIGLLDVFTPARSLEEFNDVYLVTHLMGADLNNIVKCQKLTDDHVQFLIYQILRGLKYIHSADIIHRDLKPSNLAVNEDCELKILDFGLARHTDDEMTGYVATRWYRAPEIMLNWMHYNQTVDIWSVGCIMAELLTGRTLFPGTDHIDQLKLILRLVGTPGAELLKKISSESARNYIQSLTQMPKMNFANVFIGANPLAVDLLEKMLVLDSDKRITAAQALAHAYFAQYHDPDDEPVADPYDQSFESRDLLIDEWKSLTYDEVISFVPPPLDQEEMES
Details: not given
By IC50 is commonly meant the concentration that gives 50% inhibition. A higher IC50 goes with a need for much substance. For `OCC(O)CNc1ncc2cc(Oc3ccc(F)cc3F)ccc2n1` (stereo unspecified), the IC50 is under 2000 nM.
Still for that read-out and setting: as for `Cc1cccc(Cl)c1Nc1nc2ccc(N3CCN[C@@H](C)C3)nc2n2cncc12`, the figure is 380 nM; as for `CS(=O)(=O)CCNc1ncc2cc(Oc3ccc(F)cc3F)ccc2n1`, 2000 nM.
Molecule `Cc1ccc(-n2nc(C3(C)CC3)cc2NC(=O)Nc2cnc(OC3CCN(C(=O)C4(C)CC4)CC3)c3ccccc23)cc1` registered an IC50 of 34 nM.
In the case of `O=C(c1cccc2[nH]ccc12)N1CCN(Cc2ccccc2)CC1`, the IC50 came to 1540 nM.
The same measure, in the same setting: then `Cc1nc(NC(=O)[C@H](N)[C@@H](C)O)sc1-c1ccnc(Nc2cccc([N+](=O)[O-])c2)n1`, with over 100000 nM.
The same measure, in the same setting: as for `CNc1nc(C)c(-c2ccnc(Nc3ccc(N4CCN(Cc5ccccc5)CC4)cc3)n2)s1`, the figure is over 100000 nM.
`O=C(c1c[nH]c2ccccc12)N1CCN(Cc2ccccc2)CC1` showed an IC50 of 4740 nM.
The molecule `C[C@H](C(=O)O)N1CCC(c2cc3c(ccc(=O)n3-c3c(Cl)cccc3Cl)c(-c3ccc(F)cc3Cl)n2)CC1` yielded an IC50 of 3.2 nM.
Same read-out and setting: as for `FC(F)(F)c1cnc(Nc2ccc(Br)cc2)nc1Nc1ccc2nc[nH]c2c1`, the figure is over 1000 nM; as for `O=c1ncn2nc(Sc3cccc(F)c3)ccc2c1-c1c(Cl)cccc1Cl`, 450 nM.
For `CCOc1ccc2nc(NC(CCO)CCO)ncc2c1`, the IC50 was over 10000 nM.
Molecule `CCOc1cc2cnc(NC3CCN(S(C)(=O)=O)CC3)nc2n(C)c1=O` registered an IC50 of 58 nM.
Turning to `CCS(=O)(=O)c1ccc(OC)c(Nc2ncc(-c3cccc(-c4ccccc4Cl)c3)o2)c1`, the IC50 was over 10000 nM.
Same read-out and setting: then `O=C(c1ccc2cc[nH]c2c1)N1CCN(Cc2ccccc2)CC1`, with 5520 nM.
Still for that read-out and setting: as for `COc1ccc(Nc2nc(Nc3ccc4nc[nH]c4c3)ncc2C(F)(F)F)cc1`, the figure is over 1000 nM; as for `NC(=O)c1cc(Cl)c(N2C(=O)NCc3nc(Sc4ccc(F)cc4)ccc32)c(Cl)c1`, 23 nM; as for `CCOc1cc2cnc(NC3CCNCC3)nc2n(C)c1=O`, over 10000 nM.
Still for that read-out and setting: then `CN1N=C(c2ccccc2F)Oc2cnc(NC3CCOCC3)nc21`, with 2200 nM.
In the case of `CSc1nc(-c2ccc(F)cc2)c(-c2ccncc2)[nH]1`, the IC50 is 630 nM.
Same read-out and setting: as for `Cc1ccc(Sc2ccc3c(-c4c(Cl)cccc4Cl)c(=O)ncn3n2)c(C)c1`, the figure is 264 nM; as for `Cc1cccc(-c2n[nH]cc2-c2ccc(O)cc2)n1`, 31 nM; as for `Cc1nc(N)sc1-c1ccnc(Nc2ccc(N3CCOCC3)cc2)n1`, over 100000 nM.
The same measure, in the same setting: as for `C[C@@H](C(=O)O)N1CCC(c2cc3c(ccc(=O)n3-c3c(Cl)cccc3Cl)c(-c3ccc(F)cc3Cl)n2)CC1`, the figure is 1.3 nM; as for `CNc1nc(C)c(-c2ccnc(Nc3ccc(N4CCOCC4)cc3)n2)s1`, over 100000 nM.
On to `O=c1ncn2nc(Sc3ccccc3Br)ccc2c1-c1c(Cl)cccc1Cl`, for which the IC50 was 250 nM.
On the same count and under the same terms, as for `CN1N=C(c2ccccc2Cl)Oc2cnc(NC3CCOCC3)nc21`, the figure is 189 nM; as for `Cc1ccccc1C(=O)c1ccc(Nc2cncc3ccccc23)cc1Cl`, 12.8 nM.
Still for that read-out and setting: as for `COc1cc2ncnc(Nc3cc(NC(=O)c4cccc(N(C)C)c4)ccc3C)c2cc1OC`, the figure is 31 nM.
As to `CNC(=O)c1cc(Oc2ccc(NC(=O)Nc3ccc(Cl)c(C(F)(F)F)c3)c(F)c2)ccn1`, the IC50 turned out to be 24 nM.
Still for that read-out and setting: as for `OC1CCC(Nc2ncc3cc(Oc4ccc(F)cc4F)ccc3n2)CC1` (stereo unspecified), the figure is under 30 nM.
The molecule `COc1cc2ncnc(Nc3cccc(NC(=O)c4ccccc4)c3)c2cc1OC` displayed an IC50 of 141 nM.
`FC(F)(F)c1cnc(Nc2ccc3[nH]cnc3c2)nc1Nc1ccc2[nH]cnc2c1` gave an IC50 of over 1000 nM.
Still for that read-out and setting: as for `CCn1c(=O)n(CC)c2cc(-c3[nH]c(-c4ccc(S(C)(=O)=O)cc4)nc3-c3ccc(F)cc3)ccc21`, the figure is 4000 nM; as for `Cc1cccc(-n2nnnc2-c2ccc3c(c2)n(C)c(=O)n3C)c1`, 14400 nM.
On the same count and under the same terms, as for `COc1cc2cnc(NC3CCOCC3)nc2n(C)c1=O`, the figure is 1600 nM; as for `CC[C@@H](N)C(=O)Nc1nc(C)c(-c2ccnc(Nc3cccc([N+](=O)[O-])c3)n2)s1`, over 100000 nM.
On the same count and under the same terms, then `CSc1nc(-c2ccc(F)cc2)c(-c2ccnc(NC(C)c3ccccc3)c2)n1C` (stereo unspecified), with 220 nM; and `CCC(CO)(CO)Nc1ncc2cc(Oc3ccc(F)cc3F)ccc2n1`, with under 100 nM.
The molecule `FC(F)(F)c1cnc(Nc2ccc3nc[nH]c3c2)nc1Nc1ccccc1Cl` yielded an IC50 of over 1000 nM.
Consider `O=c1ncn2nc(Sc3ccc(F)cc3)ccc2c1-c1c(Cl)cccc1Cl`, for which the IC50 amounted to 100 nM.

Still in this assay, the particulars now being: concentration not given here.
As a reminder, the inhibition is the relative decrease from the control value, in per cent. Take `NC(=O)c1cccc(Cl)c1N1C(=O)NCc2nc(Sc3ccc(F)cc3)ccc21`: the inhibition came out at 46%.
Same read-out and setting: as for `O=C1NCc2nc(Sc3ccc(Sc4ccc(F)cc4)cc3)ccc2N1c1c(Cl)cccc1Cl`, the figure is -6%; as for `Nc1n[nH]c(N)c1N=Nc1ccc(O)cc1`, 18%.

In the next assay the target is MAPK14 (human) (UniProt Q16539). The experiment in a line: Inhibition of MAPK14 Kinase Activity. The following applies: concentration not given here.
Sequence of MAPK14 (human) (Q16539 whole entry, looked up): as above
Molecule `Nc1n[nH]c(N)c1N=Nc1ccc(O)cc1` showed an activity of 82%.

The target is the same in the next assay. As to the kind of experiment: Assessment of MAPK14 Kinase Activity.
Details: not given
With `CSc1nc(-c2ccc(F)cc2)c(-c2ccncc2)[nH]1`, the IC50 is 69 nM and 70 nM.
